Key:
[1] = system: gap junction function in IMR32; format: cell-based
Protocol: The classical scrape loading test was used to monitor the function of gap junction channels. Briefly, a cut is performed with a fine needle in sub-confluent cell cultures (refer reverse phases micrograph 5B). The culture is then covered with a film of fluorescent dye Lucifer yellow which is not cell permeant. The dye however penetrates the wounded cells along the scrape. From these loaded cells the dye can only be transferred to neighbor cells through the gap junction channels. The number of cell rows that receive the dye after a given time (3 min) provides an estimation of the gap junction function. Primary antibodies specific to PKC isoforms alpha beta I and beta II were introduced individually or in combination (as shown) by endocytosis using a kit from Molecular Probe following the supplier instructions. Controls for the introduction of the specific antibodies were performed by fixing and permeabilizing the cells then staining them with a secondary antibody conjugated to Texas red (Johnson labs).
All documents referred to are incorporated herein by reference.

[2] = system: IMR32 neuroblastoma cells; experiment: Growth of IMR32 neuroblastoma cells in vitro (population size, Hoechst fluorometry); format: cell-based; design: population size, percent of matching controls: concentration or dose not given beside the values; settings: for population size, percent of matching controls: 24 replica
Protocol: Legend: IMR32 neuroblastoma cells were seeded in 96 well plates at a density of 1000 cells per well. Treatments were as follows: Control cells are untreated and growing in a MEM-based proliferation medium. […] A2+RA treatment consisted of medium A2 supplemented with all trans retinoic acid (RA) 1 uM on day 2; A1+RA consist of RA supplementation 1 uM in the absence of the cAMP analog. The population size (24 replica per treatment) was determined by a procedure using Hoechst as a reagent and cytofluor (BioRad) fluorometer for measurement. The results are expressed as a percent of matching controls.

| SMILES | cell death [1] | gap junction function [1] | population size, percent of matching controls ([2]; day 1) | population size, percent of matching controls ([2]; day 2) | population size, percent of matching controls ([2]; day 3) | population size, percent of matching controls ([2]; day 4) | population size, percent of matching controls ([2]; day 5) | population size, percent of matching controls ([2]; day 6) | effect on growth (in words) ([2]; legend of Table 1) |
| --- | --- | --- | --- | --- | --- | --- | --- | --- | --- |
| Oc1ccc(-c2nc(-c3ccncc3)c(-c3ccc(F)cc3)[nH]2)cc1 [SB202190] | died of apoptosis | Gap junction function resuming | – | – | – | – | – | – | – |
| CC1=C(/C=C/C(C)=C/C=C/C(C)=C/C(=O)O)C(C)(C)CCC1 [all trans retinoic acid (RA), all trans retinoic acid] | – | – | 84% | 87% | 90% | 63% | 70% | 68% | not very efficient in affecting growth |

Source: patent US20050020482A1, “Methods for modulating gap junctions” (priority 2001, published 2005)
